How the values were obtained:
[1] = target: T1, Intercellular adhesion molecule (ICAM-1), Integrin alpha-L/beta-2 (Homo sapiens, UniProt P05107+P05362+P20701); assay: Inhibition of LFA1/ICAM1 interaction in human Hut-78 cells in presence of 10% human serum; format: cell-based
[2] = target: T1, Intercellular adhesion molecule (ICAM-1), Integrin alpha-L/beta-2; assay: Inhibition of LFA1/ICAM1 interaction in human Hut-78 cells; format: cell-based
[3] = Half life in Sprague-Dawley rat at 5 mg/kg administered as single dose; format: ADME, organism-based; parameters: dose 5 mg/kg; conditions: in vivo
[4] = AUC in Sprague-Dawley rat at 5 mg/kg administered as single dose; format: ADME, organism-based; parameters: dose 5 mg/kg; conditions: plasma
[5] = Metabolic stability in human liver microsomes after 30 mins by LC/MS analysis; format: ADME, Microsome; conditions: read-out: Stability
[6] = Clearance in Sprague-Dawley rat at 5 mg/kg administered as single dose; format: ADME, organism-based; parameters: dose 5 mg/kg; conditions: in vivo
[7] = Metabolic stability in Sprague-Dawley rat liver microsomes after 30 mins by LC/MS analysis; format: ADME, Microsome; conditions: read-out: Stability

T1 sequence (P20701 whole entry): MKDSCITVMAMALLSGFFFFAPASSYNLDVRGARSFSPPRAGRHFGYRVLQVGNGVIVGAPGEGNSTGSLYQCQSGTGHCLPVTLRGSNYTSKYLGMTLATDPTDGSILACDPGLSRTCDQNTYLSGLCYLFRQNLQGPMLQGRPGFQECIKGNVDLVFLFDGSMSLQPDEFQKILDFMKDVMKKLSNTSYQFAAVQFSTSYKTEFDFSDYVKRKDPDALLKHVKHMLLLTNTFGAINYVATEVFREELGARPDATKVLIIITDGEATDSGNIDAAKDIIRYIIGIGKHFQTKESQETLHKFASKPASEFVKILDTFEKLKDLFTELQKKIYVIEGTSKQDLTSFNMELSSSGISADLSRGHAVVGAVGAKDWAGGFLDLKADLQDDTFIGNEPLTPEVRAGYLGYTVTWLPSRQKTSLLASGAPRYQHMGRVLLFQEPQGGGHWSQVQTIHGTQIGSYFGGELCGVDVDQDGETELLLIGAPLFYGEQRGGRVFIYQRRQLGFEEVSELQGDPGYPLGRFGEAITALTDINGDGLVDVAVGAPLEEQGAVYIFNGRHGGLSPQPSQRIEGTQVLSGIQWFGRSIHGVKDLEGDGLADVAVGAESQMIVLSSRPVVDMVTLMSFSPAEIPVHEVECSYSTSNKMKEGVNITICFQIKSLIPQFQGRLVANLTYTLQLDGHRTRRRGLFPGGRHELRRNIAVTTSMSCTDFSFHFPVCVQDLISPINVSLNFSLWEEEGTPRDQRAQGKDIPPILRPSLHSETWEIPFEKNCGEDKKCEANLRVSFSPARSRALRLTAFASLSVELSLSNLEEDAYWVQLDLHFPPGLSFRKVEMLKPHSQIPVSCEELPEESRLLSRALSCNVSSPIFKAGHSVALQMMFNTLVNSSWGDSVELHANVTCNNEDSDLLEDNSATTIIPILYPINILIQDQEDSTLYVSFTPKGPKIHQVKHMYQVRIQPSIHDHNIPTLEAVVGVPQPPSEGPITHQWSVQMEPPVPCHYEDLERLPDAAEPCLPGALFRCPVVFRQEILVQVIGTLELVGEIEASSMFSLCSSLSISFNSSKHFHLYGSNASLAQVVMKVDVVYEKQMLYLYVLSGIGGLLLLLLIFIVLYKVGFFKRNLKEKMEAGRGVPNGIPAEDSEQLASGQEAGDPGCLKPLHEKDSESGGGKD
T1 sequence (P05362 whole entry): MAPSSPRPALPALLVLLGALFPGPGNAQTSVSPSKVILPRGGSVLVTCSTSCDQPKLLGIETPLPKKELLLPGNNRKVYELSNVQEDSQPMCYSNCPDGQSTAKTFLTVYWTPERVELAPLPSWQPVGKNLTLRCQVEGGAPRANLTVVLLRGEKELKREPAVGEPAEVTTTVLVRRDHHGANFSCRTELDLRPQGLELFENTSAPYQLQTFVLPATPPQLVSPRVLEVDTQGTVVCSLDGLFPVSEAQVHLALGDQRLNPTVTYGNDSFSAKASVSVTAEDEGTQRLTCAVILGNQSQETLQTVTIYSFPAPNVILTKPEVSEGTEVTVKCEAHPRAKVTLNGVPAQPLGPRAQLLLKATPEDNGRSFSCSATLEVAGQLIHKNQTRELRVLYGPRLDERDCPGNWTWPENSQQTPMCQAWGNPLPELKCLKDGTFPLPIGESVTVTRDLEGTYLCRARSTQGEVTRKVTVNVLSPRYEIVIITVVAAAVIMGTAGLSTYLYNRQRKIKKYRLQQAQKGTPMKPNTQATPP
T1 sequence (P05107 whole entry): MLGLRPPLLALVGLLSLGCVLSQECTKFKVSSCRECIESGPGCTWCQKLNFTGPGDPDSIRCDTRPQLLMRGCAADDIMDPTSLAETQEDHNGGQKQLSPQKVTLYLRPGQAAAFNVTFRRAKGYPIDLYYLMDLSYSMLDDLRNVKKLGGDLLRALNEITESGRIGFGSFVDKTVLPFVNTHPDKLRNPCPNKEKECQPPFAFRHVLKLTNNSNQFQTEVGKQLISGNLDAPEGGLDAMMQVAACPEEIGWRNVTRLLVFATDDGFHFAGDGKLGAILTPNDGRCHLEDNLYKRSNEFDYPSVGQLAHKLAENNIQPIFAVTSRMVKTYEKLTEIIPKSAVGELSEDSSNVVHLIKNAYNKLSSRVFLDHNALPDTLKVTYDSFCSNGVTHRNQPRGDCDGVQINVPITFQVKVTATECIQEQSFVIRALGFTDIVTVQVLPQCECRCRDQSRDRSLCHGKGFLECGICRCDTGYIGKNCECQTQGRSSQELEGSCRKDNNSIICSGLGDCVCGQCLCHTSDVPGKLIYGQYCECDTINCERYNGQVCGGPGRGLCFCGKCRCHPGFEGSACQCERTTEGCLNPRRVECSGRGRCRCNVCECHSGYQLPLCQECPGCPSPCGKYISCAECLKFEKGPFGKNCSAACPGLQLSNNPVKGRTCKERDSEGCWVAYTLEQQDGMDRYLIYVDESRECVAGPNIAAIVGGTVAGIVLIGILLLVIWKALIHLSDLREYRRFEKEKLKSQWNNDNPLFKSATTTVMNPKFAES

Compound | IC50 [1] | IC50 [2] | further results
O=C(NC[C@H](NC(=O)c1c(Cl)cc2c(c1Cl)CCN(C(=O)c1ccc(Cl)cc1)C2)C(=O)O)c1cccs1 | 1500 nM | – | –
O=C(NC[C@H](NC(=O)c1c(Cl)cc2c(c1Cl)CCN(C(=O)c1ccc3ccoc3c1)C2)C(=O)O)c1cccs1 | 950 nM | 5 nM | –
CCOC(=O)[C@H](CNC(=O)c1cccs1)NC(=O)c1c(Cl)cc2c(c1Cl)CCN(C(=O)c1ccc3ccoc3c1)C2 | 950 nM | – | –
CS(=O)(=O)c1ncc(C[C@H](NC(=O)c2c(Cl)cc3c(c2Cl)CCN(C(=O)c2ccc4ccoc4c2)C3)C(=O)O)[nH]1 | 560 nM | 30 nM | –
CC(=O)n1cc(C[C@H](NC(=O)c2c(Cl)cc3c(c2Cl)CCN(C(=O)c2ccc(Cl)cc2)C3)C(=O)O)c2ccccc21 | – | 820 nM | –
CS(=O)(=O)n1cc(C[C@H](NC(=O)c2c(Cl)cc3c(c2Cl)CCN(C(=O)c2ccc(Cl)cc2)C3)C(=O)O)c2ccccc21 | 25000 nM | 100 nM | –
NS(=O)(=O)n1cc(C[C@H](NC(=O)c2c(Cl)cc3c(c2Cl)CCN(C(=O)c2ccc(Cl)cc2)C3)C(=O)O)c2ccccc21 | – | > 1000 nM | –
Cc1cccc2c1c(C[C@H](NC(=O)c1c(Cl)cc3c(c1Cl)CCN(C(=O)c1ccc(Cl)cc1)C3)C(=O)O)cn2S(C)(=O)=O | – | > 1000 nM | –
Cc1ccc2c(c1)c(C[C@H](NC(=O)c1c(Cl)cc3c(c1Cl)CCN(C(=O)c1ccc(Cl)cc1)C3)C(=O)O)cn2S(C)(=O)=O | 11000 nM | 26 nM | –
Cc1ccc2c(C[C@H](NC(=O)c3c(Cl)cc4c(c3Cl)CCN(C(=O)c3ccc(Cl)cc3)C4)C(=O)O)cn(S(C)(=O)=O)c2c1 | 25000 nM | 39 nM | –
Cc1cccc2c(C[C@H](NC(=O)c3c(Cl)cc4c(c3Cl)CCN(C(=O)c3ccc(Cl)cc3)C4)C(=O)O)cn(S(C)(=O)=O)c12 | 25000 nM | 140 nM | –
O=C(N[C@@H](Cc1c[nH]cn1)C(=O)O)c1c(Cl)cc2c(c1Cl)CCN(C(=O)c1ccc(Cl)cc1)C2 | – | 430 nM | –
Cn1cnc(C[C@H](NC(=O)c2c(Cl)cc3c(c2Cl)CCN(C(=O)c2ccc(Cl)cc2)C3)C(=O)O)c1 | – | 560 nM | –
CC(C)n1cnc(C[C@H](NC(=O)c2c(Cl)cc3c(c2Cl)CCN(C(=O)c2ccc(Cl)cc2)C3)C(=O)O)c1 | – | 170 nM | –
O=C(N[C@@H](Cc1cn(-c2ccccc2)cn1)C(=O)O)c1c(Cl)cc2c(c1Cl)CCN(C(=O)c1ccc(Cl)cc1)C2 | – | > 1000 nM | –
CC(C)n1cc(C[C@H](NC(=O)c2c(Cl)cc3c(c2Cl)CCN(C(=O)c2ccc(Cl)cc2)C3)C(=O)O)nn1 | 1000 nM | 59 nM | half-life [3]: 138 min; AUC [4]: 1410 ng·h/mL; remaining at 0.5 h [5]: 92%; clearance [6]: > 60 mL/min/kg
CC(C)c1cn(C[C@H](NC(=O)c2c(Cl)cc3c(c2Cl)CCN(C(=O)c2ccc(Cl)cc2)C3)C(=O)O)nn1 | – | 310 nM | –
CC(C)c1cc(C[C@H](NC(=O)c2c(Cl)cc3c(c2Cl)CCN(C(=O)c2ccc(Cl)cc2)C3)C(=O)O)[nH]n1 | – | 250 nM | –
CC(C)c1cnc(C[C@H](NC(=O)c2c(Cl)cc3c(c2Cl)CCN(C(=O)c2ccc(Cl)cc2)C3)C(=O)O)s1 | – | > 1000 nM | –
CC(C)n1cc(C[C@H](NC(=O)c2c(Cl)cc3c(c2Cl)CCN(C(=O)c2cc4ccccc4o2)C3)C(=O)O)nn1 | 190 nM | 5 nM | –
CC(C)n1cc(C[C@H](NC(=O)c2c(Cl)cc3c(c2Cl)CCN(C(=O)c2ccc4ccoc4c2)C3)C(=O)O)nn1 | 950 nM | 19 nM | half-life [3]: 58.2 min; AUC [4]: 3680 ng·h/mL; remaining at 0.5 h [5]: 86%; remaining at 0.5 h [7]: > 95%; clearance [6]: 26 mL/min/kg
CC(C)n1cc(C[C@H](NC(=O)c2c(Cl)cc3c(c2Cl)CCN(C(=O)c2cc4ccccn4n2)C3)C(=O)O)nn1 | 260 nM | 7 nM | –
CS(=O)(=O)c1ccc(C[C@H](NC(=O)c2c(Cl)cc3c(c2Cl)CCN(C(=O)c2ccc4ccoc4c2)C3)C(=O)O)o1 | 96 nM | 1.2 nM | half-life [3]: 25.8 min; AUC [4]: 1510 ng·h/mL; remaining at 0.5 h [5]: > 95%; remaining at 0.5 h [7]: > 65%; clearance [6]: 60 mL/min/kg
CS(=O)(=O)c1ccc(C[C@H](NC(=O)c2c(Cl)cc3c(c2Cl)CCN(C(=O)c2ccc4ccoc4c2)C3)C(=O)O)s1 | – | 150 nM | –
CS(=O)(=O)N1CCC(C[C@H](NC(=O)c2c(Cl)cc3c(c2Cl)CCN(C(=O)c2ccc4ccoc4c2)C3)C(=O)O)C1 (stereo not given in full) | – | 1000 nM | –
